The test system of data set [1] is BCC lesions (Gorlin syndrome). The experiment in a line: Clinical response of BCC lesions in patient treated with vismodegib (case study). The format is in vivo, human. The settings on record: 150 mg daily, six months after commencing therapy. From the text:
(§1) A nulliparous person with a known diagnosis of Gorlin syndrome (Basal cell carcinoma nevus syndrome: Online Mendelian Inheritance in Man #109400) presented with more than 100 discrete BCC papules on the upper trunk and head, and neck regions. They were diagnosed and treated for lymphoma in 1988, prior to the BCCNS diagnosis and received chemotherapy and radiation therapy to the mantle zone, followed by radical neck dissection. They have remained in remission and their therapy had no apparent effect on menstrual function. They experienced menarche and had regular menses at 30 to 35 day intervals until starting the current therapy. Medications included synthroid 0.15 mg for longstanding hypothyroidism.
(§2) Several of their BCC lesions, while not clinically large, appeared in this area of combined radiation and surgical sclerosis overlying the carotid sheath. Multidisciplinary consultation recommended against further surgery. They commenced therapy with vismodegib (Erivedge™ Genentech, Inc., San Francisco, Calif.) 150 mg daily. […] Shortly thereafter they underwent a reproductive endocrinology evaluation.

Data set [2] in a line: Reproductive endocrine testing of patient treated with vismodegib (case study). The class given is in vivo, human. The conditions noted are these: patient on vismodegib 150 mg daily, about six months.
Excerpt: as §1, §2
(§3) Results of reproductive endocrine testing were unique and novel (Table 1). […] elevated FSH and low estrogen level were indicative of a markedly diminished ovarian reserve. However, the presence of preantral follicles and the high AMH value indicated preservation of normal ovarian potential and possible reversal of effect following cessation of therapy.

The conditions of data set [3]: oral therapy of BCC; cited from earlier work.
Data set [4] can be described thus: Adverse effects and reproductive examination in patient treated with vismodegib (case study). The class given is in vivo, human. The settings on record: 150 mg daily.
Excerpt: as §1, §2

Data set [5] relates to follicle stimulating hormone (FSH) receptor (FSH-R). The experiment in a line: Conclusion from endocrine profile: effect on FSH receptor signaling. The class given is in vivo, human. The conditions noted are these: concluded from the endocrine profile of one patient. The protocol:
as §3
The endocrine profile of a patient who developed amenorrhea while taking vismodegib (Erivedge™) was determined. […] Secondary amenorrhea, […] of established menses, may result from a variety of conditions, including suppression of the pituitary release of FSH or its hypothalamic control via gonadotropin releasing hormone GnRH. This can be drug induced, but patients presenting in this manner typically have very low or non-detectable gonadotropin (FSH and LH) levels and low estrogen levels. Alternatively, patients with ovarian failure (follicle depletion or menopause) present with high gonadotropins, which may be induced by radiation and/or medication such as chemotherapy.
This led to the conclusion that the cause of amenorrhea in at least this patient treated with visomdegib was due to blockage of the follicle stimulating hormone (FSH) receptor (FSH-R) signaling.

[6] abbreviates: shortly after six months of therapy.

SMILES strings stand for the structures.

Take `CS(=O)(=O)c1ccc(C(=O)Nc2ccc(Cl)c(-c3ccccn3)c2)c(Cl)c1` [vismodegib]: in data set [1], the “Clinical resolution of BCC lesions” value was “near complete clinical resolution of all lesions”. Besides, the “Follicle stimulating hormone (FSH) level” value in data set [2] (follicular phase normal 2-8 IU/L) is reported as 16.0 IU/L. Also, the Progesterone level in data set [2] (follicular phase range 0.2-1.5) worked out at 0.4. The Estradiol level in data set [2] (follicular phase range 12.5-166 pg/ml) amounted to 26.9 pg/mL. Moreover, the “Anti-mulerian hormone (AMH) level” value in data set [2] (normal range <6.9) came out at 2.6. The “Leutinizing hormone (LH) level” value in data set [2] (ovulation phase range 14.0-95.6) stood at 25.3. Also, the Major side effects result in data set [3] is “dysgeusia, alopecia, leg cramping, and gastrointestinal disturbances”. Besides, in data set [4] (approximately four months after onset of amenorrhea), the Side effects result is “hair loss, slight dysgeusia, and minor leg cramping”. The Menstrual function entry in data set [4] (one month after start) was “became amenorrheic”. Further, in data set [4] (setting [6]), the “Transvaginal ultrasonography of ovaries” value is “normal ovaries, bilaterally containing multiple pre-antral follicles” and the Vaginal exam findings result is given as “moderate atrophic vaginal changes suggesting hypoestrogenism”. The “Effect on FSH action at FSH-R” value in data set [5] was “blocked the action of FSH on the FSH-R”.

The values are drawn from patent publication US9844541B2, “Methods of modulating follicle stimulating hormone activity” (Strasspharma LLC, priority 2012, dated 2017).
